Structures can show the parent of a compound that is named as a salt. Where two headings read alike, the source gives them in different places.
What was measured:
Assay type in all cases: biochemical
[1] = system: human plasmin; experiment: Plasmin inhibition (hydrolysis of N-p-Tosyl-Gly-Pro-Lys-p-nitroanilide); settings: at 1.6 μM
Text: (§1) All buffer salts were obtained from Sigma Chemical Company (St. Louis, Mo.), and were of the highest purity available. The enzyme substrates, N-benzoyl-Phe-Val-Arg-p-nitroanilide (Sigma B7632), N-benzoyl-Ile-Glu-Gly-Arg-p-nitroanilide hydrochloride (Sigma B2291), N-p-Tosyl-Gly-Pro-Lys-p-nitroanilide (Sigma T6140), N-succinyl-Ala-Ala-Pro-Phe-p-nitroanilide (Sigma S7388) and N-CBZ-Val-Gly-Arg-p-nitroanilide (Sigma C7271) were obtained from Sigma. N-succinyl-Ala-Ala-Pro-Arg-p-nitroanilide (BACHEM L-1720) and N-succinyl-Ala-Ala-Pro-Val-p-nitroanilide (BACHEM L-1770) were obtained from BACHEM (King of Prussia, Pa.). […]
(§2) All assays are based on the ability of the test compound to inhibit the enzyme catalyzed hydrolysis of a peptide p-nitroanilide substrate. […] In general, substrate concentrations are lower than the experimentally determined value for Km. […]
(§3) In a typical Ki determination, into each well of a 96 well plate is pipetted 280 μL of substrate solution, 10 μL of test compound solution, and the plate allowed to thermally equilibrate at 37° C. in a Molecular Devices plate reader for >15 minutes. Reactions were initiated by the addition of a 10 μL aliquot of enzyme and the absorbance increase at 405 nm is recorded for 15 minutes. […] The data are fit to a linear regression, and the value of the slope of the line calculated. The inverse of the slope is the experimentally determined Ki value. […]

[2] = system: bovine trypsin; experiment: Trypsin inhibition (hydrolysis of N-benzoyl-Phe-Val-Arg-p-nitroanilide); settings: at 1.6 μM
Text: as §1, §2, §3

[3] = system: human factor Xa; experiment: Factor Xa inhibition (hydrolysis of N-benzoyl-Ile-Glu-Gly-Arg-p-nitroanilide); settings: at 1.6 μM
Text: as §1, §2, §3

[4] = system: human leukocyte elastase; experiment: Elastase inhibition (hydrolysis of N-succinyl-Ala-Ala-Pro-Val-p-nitroanilide); settings: at 1.6 μM
Text: as §1, §2, §3

[5] = system: bovine α-chymotrypsin; experiment: Chymotrypsin inhibition (hydrolysis of N-succinyl-Ala-Ala-Pro-Phe-p-nitroanilide); settings: at 1.6 μM
Text: as §1, §2, §3

[6] = biological target: T1, human α-thrombin (Homo sapiens, UniProt P00734); experiment: Thrombin inhibition, Ki determination (hydrolysis of N-succinyl-Ala-Ala-Pro-Arg-p-nitroanilide); settings: pH 7.5, 37° C.
T1 construct: Human α-thrombin, human factor Xa and human plasmin were obtained from Enzyme Research Laboratories; purchased Enzyme Research Laboratories (South Bend, Ind.)
Text: All buffer salts were obtained from Sigma Chemical Company (St. Louis, Mo.), and were of the highest purity available. The enzyme substrates, N-benzoyl-Phe-Val-Arg-p-nitroanilide (Sigma B7632), N-benzoyl-Ile-Glu-Gly-Arg-p-nitroanilide hydrochloride (Sigma B2291), N-p-Tosyl-Gly-Pro-Lys-p-nitroanilide (Sigma T6140), N-succinyl-Ala-Ala-Pro-Phe-p-nitroanilide (Sigma S7388) and N-CBZ-Val-Gly-Arg-p-nitroanilide (Sigma C7271) were obtained from Sigma.
Human α-thrombin, human factor Xa and human plasmin were obtained from Enzyme Research Laboratories (South Bend, Ind.). Bovine α-chymotrypsin (Sigma C4129), bovine trypsin (Sigma T8642) and human kidney cell urokinase (Sigma U5004) were obtained from Sigma. Human leukocyte elastase was obtained from Elastin Products (Pacific, Mo.).
All assays are based on the ability of the test compound to inhibit the enzyme catalyzed hydrolysis of a peptide p-nitroanilide substrate. […] The final concentrations for each of the substrates is listed below. In general, substrate concentrations are lower than the experimentally determined value for Km. Test compounds are prepared as a 1.0 mg/ml solution in DMSO. Dilutions are prepared in DMSO yielding 8 final concentrations encompassing a 200 fold concentration range. Enzyme solutions are prepared at the concentrations listed below in assay buffer.
Data corresponding to less than 10% of the total substrate hydrolysis were used in the calculations. The ratio of the velocity (rate of change in absorbance as a function of time) for a sample containing no test compound is divided by the velocity of a sample containing test compound, and is plotted as a function of test compound concentration. The data are fit to a linear regression, and the value of the slope of the line calculated. The inverse of the slope is the experimentally determined Ki value.
Thrombin activity was assessed as the ability to hydrolyze the substrate N-succinyl-Ala-Ala-Pro-Arg-p-nitroanilide.

[7] = system: human kidney urokinase; experiment: Urokinase inhibition (hydrolysis of N-CBZ-Val-Gly-Arg-p-nitroanilide); settings: at 1.6 μM
Text: as §1, §2, §3

| % Inhibition (elastase) [4] [%] | Ki ([6]; Table 2, read-out: Ki (thrombin)) [nM] | % Inhibition (urokinase) [7] [%] | Ki ([6]; Table 1, read-out: Thrombin Ki) [nM] | SMILES | % Inhibition (plasmin) [1] [%] | % Inhibition (trypsin) [2] [%] | % Inhibition (Factor Xa) [3] [%] | % Inhibition (chymotrypsin) [5] [%] |
| --- | --- | --- | --- | --- | --- | --- | --- | --- |
| 0 | 13 | 0 | – | Cc1cc(OCCC=NNC(=N)N)cc(OS(=O)(=O)c2ccccc2Cl)c1 [Example 1, 2-[2-[3-(2-Chlorophenylsulfonyloxy)-5-methylphenoxy]ethyl-1-methylene]hydrazinecarboximidamide hydrochloride] | 0 | 0 | 0 | 0 |
| – | – | – | 186 | COc1ccc(Cl)cc1S(=O)(=O)Oc1cc(C)cc(OCCC=NN(N)C(=N)N)c1 [Example 28, 1-Amino-2-[2-[3-(5-chloro-2-methoxyphenylsulfonyloxy)-5-methylphenoxy]ethyl-1-methylene]hydrazinecarboximidamine acetate] | – | – | – | – |
| – | – | – | 3.6 | Cc1cc(OCCC=NNC(=N)N)cc(OS(=O)(=O)c2cccc(Cl)c2)c1 [Example 21, 2-[2-[3-(3-Chlorophenylsulfonyloxy)-5-methylphenoxy]ethyl-1-methylene]hydrazinecarboximidamide nitrate] | – | – | – | – |

From patent US5891909A, “Amidinohydrazones as protease inhibitors” (3-Dimensional Pharmaceuticals, Inc., priority 1997, dated 1999)
